Literature values in patent publication US10765633B2, “Formulation comprising liposomes” (Eisai R&D Management Co., Ltd., priority 2018, dated 2020).

Test system: HDL
Details: binding of eritoran to HDL

## CCCCCC/C=C\CCCCCCCCCC(=O)N[C@H]1[C@H](OC[C@H]2O[C@H](OP(=O)(O)O)[C@H](NC(=O)CC(=O)CCCCCCCCCCC)[C@@H](OCCCCCCCCCC)[C@@H]2O)O[C@H](COC)[C@@H](OP(=O)(O)O)[C@@H]1OCC[C@@H](CCCCCCC)OC [eritoran, Eritoran]
  effect of binding to HDL on drug activity: time-dependent loss of drug activity
